Like-named read-outs stand apart in the source and are kept apart here.
Columns and labels:
[1] = biological target: T1, BRAF (Homo sapiens, UniProt P15056); assay: In vitro kinase assay (Z'-LYTE, Invitrogen); format: biochemical; conditions: compound at 100 nM, ATP Km apparent, read-out: % of inhibition of the kinase compared to the control
T1 construct: purchased Invitrogen
Method in brief: (§1)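 Compounds were tested at 100 nM in 1% DMSO, in 50 mM HEPES pH 7.5 buffer with MgCl2, EGTA and BRIJ-35, and ATP at its predetermined apparent Km. Inhibition was derived from the coupled-enzyme FRET emission ratio, which reflects protease-resistant phosphorylated peptide.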

[2] = biological target: T2, EGFR (ErbB1) (Homo sapiens, UniProt P00533); assay: In vitro kinase assay (Z'-LYTE, Invitrogen); format: biochemical; conditions: compound at 100 nM, ATP Km apparent, read-out: % of inhibition of the kinase compared to the control
T2 construct: purchased Invitrogen
Method in brief: as §1

[3] = biological target: T3, FGFR2 (Homo sapiens, UniProt P21802); assay: In vitro kinase assay (Z'-LYTE, Invitrogen); format: biochemical; conditions: compound at 100 nM, ATP Km apparent, read-out: % of inhibition of the kinase compared to the control
T3 construct: purchased Invitrogen
Method in brief: as §1

[4] = biological target: T4, KDR (VEGFR2) (Homo sapiens, UniProt P35968); assay: In vitro kinase assay (Z'-LYTE, Invitrogen); format: biochemical; conditions: compound at 100 nM, ATP Km apparent, read-out: % of inhibition of the kinase compared to the control
T4 construct: purchased Invitrogen
Method in brief: as §1

[5] = biological target: T5, PDGFRA (PDGFR alpha) (Homo sapiens, UniProt P16234); assay: In vitro kinase assay (Z'-LYTE, Invitrogen); format: biochemical; conditions: compound at 100 nM, ATP Km apparent, read-out: % of inhibition of the kinase compared to the control
T5 construct: purchased Invitrogen
Method in brief: as §1

[6] = biological target: T6, SRC (Homo sapiens, UniProt P12931); assay: In vitro kinase assay (Z'-LYTE, Invitrogen); format: biochemical; conditions: compound at 100 nM, ATP Km apparent, read-out: % of inhibition of the kinase compared to the control
T6 construct: purchased Invitrogen
Method in brief: as §1

[7] = test system: HUVEC cells; assay: In vitro cell proliferation assay (MTT); format: cell-based; conditions: Homo sapiens, 72 hr, read-out: EC50, anti-proliferative activity
Method in brief: (§2)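 Duplicate 72 hr treatments spanning 10 nM–3 μM compound preceded MTT measurement of growth. Sigmoidal fitting yielded EC50, with normalization against DMSO controls set at 0% and 1% SDS controls set at 100%.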

[8] = test system: HepG2 cell line; assay: In vitro cell proliferation assay (MTT); format: cell-based; conditions: Homo sapiens, HepG2, 72 hr, EC50 ≧ 1 μM, read-out: EC50, anti-proliferative activity
Method in brief: as §2

[9] = test system: HuCCT1 cell line; assay: In vitro cell proliferation assay (MTT); format: cell-based; conditions: Homo sapiens, HuCCT-1, HuCCT1, 72 hr, EC50 ≧ 1 μM, read-out: EC50, anti-proliferative activity
Method in brief: as §2

[10] = test system: HuH6 Clone 5 cell line; assay: In vitro cell proliferation assay (MTT); format: cell-based; conditions: HUH-6-clone5, HuH6 Clone 5, 72 hr, EC50 ≧ 1 μM, read-out: EC50, anti-proliferative activity
Method in brief: as §2

[11] = test system: HuH7 cell line; assay: In vitro cell proliferation assay (MTT); format: cell-based; conditions: Homo sapiens, Huh-7, HuH7, 72 hr, read-out: EC50, anti-proliferative activity
Method in brief: as §2

[12] = test system: MDA-MB-231 cell line; assay: In vitro cell proliferation assay (MTT); format: cell-based; conditions: Homo sapiens, MDA-MB-231, 72 hr, EC50 ≧ 1 μM, read-out: EC50, anti-proliferative activity
Method in brief: as §2

[13] = biological target: T7, EGFR (ErbB1) T790M L858R (Homo sapiens, UniProt P00533, L858R/T790M); assay: In vitro kinase assay (Z'-LYTE, Invitrogen); format: biochemical; conditions: compound at 100 nM, ATP Km apparent, read-out: % of inhibition of the kinase compared to the control
T7 construct: purchased Invitrogen
Method in brief: as §1

[14] = test system: A549 cell line; assay: In vitro cell proliferation assay (MTT); format: cell-based; conditions: Homo sapiens, A549, 72 h, EC50 ≧ 1 μM, read-out: EC50, anti-proliferative activity
Method in brief: as §2

[15] = test system: HT29 cell line; assay: In vitro cell proliferation assay (MTT); format: cell-based; conditions: Homo sapiens, HT-29, HT29, 72 hr, EC50 ≧ 1 μM, read-out: EC50, anti-proliferative activity
Method in brief: as §2

T5 sequence (P16234 24-1089): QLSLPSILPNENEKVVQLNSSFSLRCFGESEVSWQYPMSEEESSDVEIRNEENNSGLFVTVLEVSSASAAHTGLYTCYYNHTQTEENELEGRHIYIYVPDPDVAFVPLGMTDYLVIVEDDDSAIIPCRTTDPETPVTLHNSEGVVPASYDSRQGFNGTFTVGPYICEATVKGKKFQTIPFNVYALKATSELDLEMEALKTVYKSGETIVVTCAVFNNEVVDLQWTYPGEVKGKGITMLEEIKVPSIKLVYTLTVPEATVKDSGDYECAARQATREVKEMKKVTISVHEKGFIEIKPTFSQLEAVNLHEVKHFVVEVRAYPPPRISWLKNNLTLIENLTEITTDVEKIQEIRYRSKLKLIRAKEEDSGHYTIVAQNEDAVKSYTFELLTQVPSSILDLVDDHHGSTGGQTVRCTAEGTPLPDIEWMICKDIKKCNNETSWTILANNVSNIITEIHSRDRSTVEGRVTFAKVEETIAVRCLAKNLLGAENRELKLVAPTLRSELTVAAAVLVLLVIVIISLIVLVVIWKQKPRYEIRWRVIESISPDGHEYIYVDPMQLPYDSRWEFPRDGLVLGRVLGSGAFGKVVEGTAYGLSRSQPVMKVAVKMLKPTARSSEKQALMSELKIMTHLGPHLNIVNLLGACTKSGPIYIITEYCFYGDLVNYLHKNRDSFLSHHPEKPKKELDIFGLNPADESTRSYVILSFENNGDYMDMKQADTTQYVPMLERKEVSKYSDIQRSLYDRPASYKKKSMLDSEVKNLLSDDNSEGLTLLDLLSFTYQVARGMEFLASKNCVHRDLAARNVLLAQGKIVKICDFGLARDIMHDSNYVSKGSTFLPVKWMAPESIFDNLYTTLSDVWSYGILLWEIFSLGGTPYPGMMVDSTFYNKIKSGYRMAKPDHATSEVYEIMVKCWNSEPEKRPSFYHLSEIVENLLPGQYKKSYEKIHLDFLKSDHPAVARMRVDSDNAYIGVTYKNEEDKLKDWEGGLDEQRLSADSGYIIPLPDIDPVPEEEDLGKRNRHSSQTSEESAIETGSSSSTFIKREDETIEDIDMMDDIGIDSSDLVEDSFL
T6 sequence (P12931 whole entry): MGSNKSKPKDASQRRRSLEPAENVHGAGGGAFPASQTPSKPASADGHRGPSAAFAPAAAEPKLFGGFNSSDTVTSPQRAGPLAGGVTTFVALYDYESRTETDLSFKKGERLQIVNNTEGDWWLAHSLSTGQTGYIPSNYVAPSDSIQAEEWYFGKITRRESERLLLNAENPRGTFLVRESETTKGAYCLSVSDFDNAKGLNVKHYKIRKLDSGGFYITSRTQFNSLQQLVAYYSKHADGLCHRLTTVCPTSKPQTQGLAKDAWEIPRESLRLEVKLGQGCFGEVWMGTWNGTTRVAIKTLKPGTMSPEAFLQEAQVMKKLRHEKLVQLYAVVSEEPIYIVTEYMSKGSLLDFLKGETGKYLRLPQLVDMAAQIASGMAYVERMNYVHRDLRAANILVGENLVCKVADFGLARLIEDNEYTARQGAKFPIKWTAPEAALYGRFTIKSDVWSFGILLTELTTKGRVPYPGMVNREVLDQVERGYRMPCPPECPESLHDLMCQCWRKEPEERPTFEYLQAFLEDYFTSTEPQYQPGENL
T7 sequence (P00533 25-1210 T790M/L858R): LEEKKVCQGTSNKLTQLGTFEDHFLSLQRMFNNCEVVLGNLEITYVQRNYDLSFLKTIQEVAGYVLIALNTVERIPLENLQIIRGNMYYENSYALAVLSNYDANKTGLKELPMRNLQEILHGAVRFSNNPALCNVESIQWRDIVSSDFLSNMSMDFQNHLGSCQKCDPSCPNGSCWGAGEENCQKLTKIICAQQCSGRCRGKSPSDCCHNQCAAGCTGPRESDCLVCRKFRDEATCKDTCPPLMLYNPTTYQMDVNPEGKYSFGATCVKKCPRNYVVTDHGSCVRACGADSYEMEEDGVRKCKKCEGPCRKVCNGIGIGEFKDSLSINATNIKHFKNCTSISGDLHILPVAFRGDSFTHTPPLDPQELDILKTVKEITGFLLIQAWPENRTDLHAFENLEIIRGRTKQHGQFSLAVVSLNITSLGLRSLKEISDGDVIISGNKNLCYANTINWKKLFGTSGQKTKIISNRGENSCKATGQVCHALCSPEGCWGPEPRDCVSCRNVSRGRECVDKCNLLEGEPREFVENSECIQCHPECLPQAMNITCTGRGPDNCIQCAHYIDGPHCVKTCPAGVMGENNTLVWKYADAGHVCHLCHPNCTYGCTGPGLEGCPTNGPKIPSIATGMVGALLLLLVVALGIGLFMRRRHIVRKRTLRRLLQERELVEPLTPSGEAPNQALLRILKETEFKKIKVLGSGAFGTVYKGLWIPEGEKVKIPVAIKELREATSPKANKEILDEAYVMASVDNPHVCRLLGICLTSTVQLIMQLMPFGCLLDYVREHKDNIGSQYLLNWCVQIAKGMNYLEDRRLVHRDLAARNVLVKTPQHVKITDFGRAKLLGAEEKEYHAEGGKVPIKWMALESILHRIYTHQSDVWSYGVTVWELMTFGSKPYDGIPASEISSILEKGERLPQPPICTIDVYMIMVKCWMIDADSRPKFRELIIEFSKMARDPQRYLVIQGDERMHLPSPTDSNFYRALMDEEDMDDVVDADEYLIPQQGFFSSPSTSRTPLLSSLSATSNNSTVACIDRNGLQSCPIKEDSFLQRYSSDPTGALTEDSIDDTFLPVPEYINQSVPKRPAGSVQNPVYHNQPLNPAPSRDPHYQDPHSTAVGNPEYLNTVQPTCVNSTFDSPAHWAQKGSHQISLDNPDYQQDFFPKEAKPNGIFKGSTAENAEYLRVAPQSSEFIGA
T2 sequence (P00533 25-1210): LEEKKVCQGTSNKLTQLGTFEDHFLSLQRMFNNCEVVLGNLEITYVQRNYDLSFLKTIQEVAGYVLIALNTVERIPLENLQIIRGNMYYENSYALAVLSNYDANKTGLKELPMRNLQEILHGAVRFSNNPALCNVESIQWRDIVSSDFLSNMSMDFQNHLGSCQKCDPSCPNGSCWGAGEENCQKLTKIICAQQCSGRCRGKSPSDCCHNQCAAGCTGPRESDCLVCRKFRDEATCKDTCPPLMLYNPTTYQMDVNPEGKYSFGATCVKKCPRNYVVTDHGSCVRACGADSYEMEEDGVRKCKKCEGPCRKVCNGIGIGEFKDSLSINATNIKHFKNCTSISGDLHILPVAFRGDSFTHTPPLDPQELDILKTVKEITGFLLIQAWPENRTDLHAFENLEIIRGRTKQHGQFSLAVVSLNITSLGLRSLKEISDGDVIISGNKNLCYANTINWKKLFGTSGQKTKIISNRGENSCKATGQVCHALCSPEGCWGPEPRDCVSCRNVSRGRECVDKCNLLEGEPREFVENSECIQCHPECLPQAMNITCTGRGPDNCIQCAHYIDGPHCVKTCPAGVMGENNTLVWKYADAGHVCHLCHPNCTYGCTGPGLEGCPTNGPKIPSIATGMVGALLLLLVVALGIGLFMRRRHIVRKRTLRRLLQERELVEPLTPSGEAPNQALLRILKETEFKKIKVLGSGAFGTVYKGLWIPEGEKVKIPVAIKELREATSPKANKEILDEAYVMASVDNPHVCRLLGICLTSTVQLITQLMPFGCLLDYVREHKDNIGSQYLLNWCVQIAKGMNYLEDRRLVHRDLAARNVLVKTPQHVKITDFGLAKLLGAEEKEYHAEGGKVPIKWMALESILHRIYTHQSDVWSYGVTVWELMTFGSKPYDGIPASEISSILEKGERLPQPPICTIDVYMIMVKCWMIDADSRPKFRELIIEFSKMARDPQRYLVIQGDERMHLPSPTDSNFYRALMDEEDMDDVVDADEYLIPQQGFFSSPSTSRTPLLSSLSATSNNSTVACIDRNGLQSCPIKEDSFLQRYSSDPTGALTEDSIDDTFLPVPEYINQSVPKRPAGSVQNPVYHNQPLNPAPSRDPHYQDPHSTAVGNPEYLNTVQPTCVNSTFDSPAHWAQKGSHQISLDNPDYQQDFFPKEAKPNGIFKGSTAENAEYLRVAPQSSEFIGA
T1 sequence (P15056 whole entry): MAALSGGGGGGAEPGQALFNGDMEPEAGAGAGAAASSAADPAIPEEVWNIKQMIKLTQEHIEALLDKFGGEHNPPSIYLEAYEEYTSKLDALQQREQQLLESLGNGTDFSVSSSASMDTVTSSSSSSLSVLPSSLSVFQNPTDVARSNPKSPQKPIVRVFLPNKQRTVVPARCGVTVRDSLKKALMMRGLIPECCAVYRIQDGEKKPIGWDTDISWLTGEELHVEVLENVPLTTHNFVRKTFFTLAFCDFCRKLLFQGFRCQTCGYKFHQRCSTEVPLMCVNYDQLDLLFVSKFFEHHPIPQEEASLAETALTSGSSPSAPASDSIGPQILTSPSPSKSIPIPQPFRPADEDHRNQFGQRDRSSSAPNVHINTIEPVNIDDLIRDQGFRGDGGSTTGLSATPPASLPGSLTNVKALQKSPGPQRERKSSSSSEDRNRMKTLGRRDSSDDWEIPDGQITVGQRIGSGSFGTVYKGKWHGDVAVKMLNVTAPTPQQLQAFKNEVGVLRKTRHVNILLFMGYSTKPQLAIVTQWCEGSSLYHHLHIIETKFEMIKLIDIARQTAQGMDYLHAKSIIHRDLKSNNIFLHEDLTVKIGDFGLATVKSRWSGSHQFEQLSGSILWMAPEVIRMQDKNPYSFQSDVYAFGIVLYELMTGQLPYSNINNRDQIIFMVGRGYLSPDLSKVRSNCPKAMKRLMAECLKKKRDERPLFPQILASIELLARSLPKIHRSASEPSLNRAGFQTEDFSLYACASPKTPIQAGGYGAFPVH

SMILES	inhibition at 0.1 µM [1]	inhibition at 0.1 µM [2]	inhibition at 0.1 µM [3]	inhibition at 0.1 µM [4]	inhibition at 0.1 µM [5]	inhibition at 0.1 µM [6]	EC50 ([7]; EC50 ≧ 1 μM)	EC50 [8]	EC50 [9]	EC50 [10]	EC50 ([11]; EC50 ≧ 1 μM)	EC50 [12]	inhibition at 0.1 µM [13]	EC50 [14]	EC50 [15]	EC50 ([7]; 100 nM < EC50 < 1 μM)	EC50 ([11]; 100 nM < EC50 < 1 μM)
COC(=O)c1cc2cc(C=Cc3cc(NC(=O)c4ccc(CN5CCC(N(C)C)C5)c(C(F)(F)F)c4)ccc3C)cnc2[nH]1 (stereo not shown) [OR0778, 5-(2-{5-[4-(3-Dimethylamino-pyrrolidin-1-ylmethyl)-3-trifluoromethyl-benzoylamino]-2-methyl-phenyl}-vinyl)-1H-pyrrolo[2,3-b]pyridine-2-carboxylic acid methyl ester]	< 50%	≥ 50%	< 50%	≥ 50%	≥ 50%	≥ 50%	≥ 1000 nM	≥ 1000 nM	≥ 1000 nM	≥ 1000 nM	≥ 1000 nM	≥ 1000 nM	–	–	–	–	–
COC(=O)c1cc2cc(CNC(=O)c3cc(NC(=O)c4ccc(CN5CCN(C)CC5)c(C(F)(F)F)c4)ccc3C)cnc2[nH]1 [OR0728, 5-({2-Methyl-5-[4-(4-methyl-piperazin-1-ylmethyl)-3-trifluoromethyl-benzoylamino]-benzoylamino}-methyl)-1H-pyrrolo[2,3-b]pyridine-2-carboxylic acid methyl ester]	< 50%	< 50%	< 50%	< 50%	≥ 50%	< 50%	–	–	–	–	–	–	< 50%	–	–	–	–
COC(=O)c1cc2cc(CCc3cc(NC(=O)c4ccc(CN5CCN(C)CC5)cc4)ccc3C)cnc2[nH]1 [OR0834, 5-(2-{2-Methyl-5-[4-(4-methyl-piperazin-1-ylmethyl)-benzoylamino]-phenyl}-ethyl)-1H-pyrrolo[2,3-b]pyridine-2-carboxylic acid methyl ester]	< 50%	≥ 50%	< 50%	≥ 50%	≥ 50%	≥ 50%	≥ 1000 nM	≥ 1000 nM	–	–	≥ 1000 nM	–	–	–	–	–	–
C#Cc1cccc(Nc2ncnc3cc(OCCOC)c(OCCOC)cc23)c1 [Erlotinib, reference compound]	–	–	–	–	–	–	≥ 1000 nM	–	–	–	–	–	–	≥ 1000 nM	≥ 1000 nM	–	–
COC(=O)c1cc2cc(CNC(=O)c3cc(NC(=O)c4ccc(CN5CCN(C)CC5)cc4)ccc3C)cnc2[nH]1 [OR0730, 5-({2-Methyl-5-[4-(4-methyl-piperazin-1-ylmethyl)-benzoylamino]-benzoylamino}-methyl)-1H-pyrrolo[2,3-b]pyridine-2-carboxylic acid methyl ester]	< 50%	< 50%	< 50%	< 50%	< 50%	< 50%	–	–	–	–	–	–	< 50%	–	–	–	–
COC(=O)c1cc2cc(CCc3cc(NC(=O)c4ccc(CN5CCC(N(C)C)C5)c(C(F)(F)F)c4)ccc3C)cnc2[nH]1 (stereo not shown) [OR0775, 5-(2-{5-[4-(3-Dimethylamino-pyrrolidin-1-ylmethyl)-3-trifluoromethyl-benzoylamino]-2-methyl-phenyl}-ethyl)-1H-pyrrolo[2,3-b]pyridine-2-carboxylic acid methyl ester]	≥ 50%	≥ 50%	≥ 50%	≥ 50%	≥ 50%	≥ 50%	–	≥ 1000 nM	≥ 1000 nM	≥ 1000 nM	–	–	≥ 50%	–	–	100 to 1000 nM	100 to 1000 nM
CNC(=O)c1cc(Oc2ccc(NC(=O)Nc3ccc(Cl)c(C(F)(F)F)c3)cc2)ccn1 [Sorafenib, reference compound]	–	–	–	–	–	–	–	1000 to 3000 nM	1000 to 3000 nM	1000 to 3000 nM	1000 to 3000 nM	–	–	–	–	100 to 1000 nM	–
